What was measured:
[1] = system: normal cells (blood, bone marrow from healthy donors, iMSC#3); assay: Toxicity towards normal cells ex vivo, ATP viability 72h; type: cell-based, human; conditions: 1 nM to 10 μM
Description: 349 compounds from anti-cancer Selleck Chemical library were pre-aliquoted at five concentrations, increasing in 10-fold steps from 1 nM to 10 μM, in 384-well plates using an Echo Liquid Handler. Each plate also contained positive (benzethonium chloride, BzCl) and negative (DMSO only) controls. Additional drugs were added manually to the same plates at the same concentration range. Cells were seeded directly into the plates containing the drugs. After 72h viability was assessed through levels of ATP, with Cell Titer Glow assay (Promega, Wisconsin, United States) and luminescence quantified using a […]. Data from drug screens were analyzed with R version 3.4.0 (R_Core_Team, 2017) normalized to median positive (BzCl) and median negative (DMSO) controls using formula: (drug-BzCl)/(DMSO–BzCl), with total viability calculated as the area under the curve over all five drug concentrations, adjusted using qualitatively constrained quantile smoothing splines, R package ‘cobs’ version 1.3–3 [22]. […] For two cases where the z’-factor was below 0.5, strictly standardized mean difference (SSMD) was additionally calculated, giving the population value (β) of SSMD -4 and -5, respectively, indicating good quality. […]

[2] = system: all cancer cell lines (NCI-60); parameters: method as in NCI-60 project; conditions: ref NCI-60 project; cited from earlier work

Row | Compound | toxicity towards normal cells compared with liposarcoma cell lines [1] | IC50 [2] [nM]
1 | Cn1cc(CNCC2CCN(c3ncc(C(=O)NO)cn3)CC2)c2ccccc21 [JNJ-26481585] | more toxic to bone marrow cells in vitro than to liposarcoma cell lines | –
2 | CC(C)[C@]12O[C@H]1[C@@H]1O[C@]13[C@]1(O[C@H]1C[C@H]1C4=C(CC[C@@]13C)C(=O)OC4)[C@@H]2O [Triptolide] | more toxic to bone marrow cells in vitro than to liposarcoma cell lines | 12

— PMC7946228, “Discovery of novel candidates for anti-liposarcoma therapies by medium-scale high-throughput drug screening” (PLoS ONE, 2021)
